Target: T1, ZmACO2 (Zea mays, UniProt A0A804UDP7)
T1 construct: gene LOC100382364
Assay: ethylene production by gas chromatography with flame-ionization detection
Type: biochemical
Conditions: 5 mM ascorbate, 20 mM bicarbonate, 0.02 mM iron sulfate, 1 mM DTT, 10% glycerol, MOPS pH 7.2, 30 °C; ACC varied, Michaelis-Menten fit drawn

T1 sequence (A0A804UDP7 1-326): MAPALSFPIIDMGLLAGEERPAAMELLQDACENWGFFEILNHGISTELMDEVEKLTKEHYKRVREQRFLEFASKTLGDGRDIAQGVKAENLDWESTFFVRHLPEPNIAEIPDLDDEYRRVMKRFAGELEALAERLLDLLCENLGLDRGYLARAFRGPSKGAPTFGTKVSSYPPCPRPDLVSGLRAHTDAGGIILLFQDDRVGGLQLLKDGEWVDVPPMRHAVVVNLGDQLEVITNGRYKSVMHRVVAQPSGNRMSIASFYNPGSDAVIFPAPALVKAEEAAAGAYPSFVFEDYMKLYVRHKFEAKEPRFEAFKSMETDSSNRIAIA

## NC1(C(=O)O)CC1 [ACC]
  ethylene production by gas chromatography with flame-ionization detection: The amount of ethylene production catalyzed by ZmACO2 increased exponentially up to an ACC concentration
